How the values were obtained:
[1] = molecular target: Protein arginine N-methyltransferase 7 (Homo sapiens, UniProt Q9NVM4); assay: Selectivity interaction (Scintillation proximity assays) EUB0000230b PRMT7
[2] = molecular target: Fibroblast growth factor receptor 3 (Homo sapiens, UniProt P22607); assay: Selectivity interaction (Kinase panel (DSF assay)) EUB0001559a FGFR3
[3] = molecular target: T1, Scaffold protein ILK (Homo sapiens) (UniProt Q13418); assay: Selectivity interaction (ActivX KiNativ screen (kinase selectivity in THP-1 cell lysates)) EUB0000639a ILK; type: subcellular; details: lysate, at 0.01 µM
T1 sequence (whole entry): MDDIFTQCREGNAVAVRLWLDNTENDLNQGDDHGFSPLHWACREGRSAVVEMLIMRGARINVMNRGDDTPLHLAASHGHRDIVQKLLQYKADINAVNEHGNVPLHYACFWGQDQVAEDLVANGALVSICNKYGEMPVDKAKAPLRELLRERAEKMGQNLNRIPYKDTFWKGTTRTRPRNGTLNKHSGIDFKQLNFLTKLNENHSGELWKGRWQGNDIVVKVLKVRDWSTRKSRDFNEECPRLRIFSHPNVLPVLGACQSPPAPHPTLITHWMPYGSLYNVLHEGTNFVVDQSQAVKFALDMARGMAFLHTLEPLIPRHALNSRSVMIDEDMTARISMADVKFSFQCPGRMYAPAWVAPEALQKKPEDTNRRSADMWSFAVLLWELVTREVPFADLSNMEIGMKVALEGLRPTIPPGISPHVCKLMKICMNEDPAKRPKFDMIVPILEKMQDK

[4] = molecular target: Cyclin-dependent kinase 17 (Homo sapiens) (UniProt Q00537); assay: Selectivity interaction (ActivX KiNativ screen (kinase selectivity in THP-1 cell lysates)) EUB0000639a CDK17; type: subcellular; details: lysate, at 5 µM
[5] = molecular target: Mitogen-activated protein kinase 3 (Homo sapiens, UniProt P27361); assay: Selectivity interaction (Ambit KINOMEscan and KiNATiv profiling in Jurkat cells) EUB0000090b MAPK3; type: cell-based; details: at 1 µM
[6] = molecular target: T2, Histone-lysine N-methyltransferase NSD3 (Homo sapiens) (UniProt Q9BZ95); assay: Selectivity interaction (Methyltransferase screen (Scintillation proximity assays)) EUB0000255b NSD3
T2 sequence (whole entry): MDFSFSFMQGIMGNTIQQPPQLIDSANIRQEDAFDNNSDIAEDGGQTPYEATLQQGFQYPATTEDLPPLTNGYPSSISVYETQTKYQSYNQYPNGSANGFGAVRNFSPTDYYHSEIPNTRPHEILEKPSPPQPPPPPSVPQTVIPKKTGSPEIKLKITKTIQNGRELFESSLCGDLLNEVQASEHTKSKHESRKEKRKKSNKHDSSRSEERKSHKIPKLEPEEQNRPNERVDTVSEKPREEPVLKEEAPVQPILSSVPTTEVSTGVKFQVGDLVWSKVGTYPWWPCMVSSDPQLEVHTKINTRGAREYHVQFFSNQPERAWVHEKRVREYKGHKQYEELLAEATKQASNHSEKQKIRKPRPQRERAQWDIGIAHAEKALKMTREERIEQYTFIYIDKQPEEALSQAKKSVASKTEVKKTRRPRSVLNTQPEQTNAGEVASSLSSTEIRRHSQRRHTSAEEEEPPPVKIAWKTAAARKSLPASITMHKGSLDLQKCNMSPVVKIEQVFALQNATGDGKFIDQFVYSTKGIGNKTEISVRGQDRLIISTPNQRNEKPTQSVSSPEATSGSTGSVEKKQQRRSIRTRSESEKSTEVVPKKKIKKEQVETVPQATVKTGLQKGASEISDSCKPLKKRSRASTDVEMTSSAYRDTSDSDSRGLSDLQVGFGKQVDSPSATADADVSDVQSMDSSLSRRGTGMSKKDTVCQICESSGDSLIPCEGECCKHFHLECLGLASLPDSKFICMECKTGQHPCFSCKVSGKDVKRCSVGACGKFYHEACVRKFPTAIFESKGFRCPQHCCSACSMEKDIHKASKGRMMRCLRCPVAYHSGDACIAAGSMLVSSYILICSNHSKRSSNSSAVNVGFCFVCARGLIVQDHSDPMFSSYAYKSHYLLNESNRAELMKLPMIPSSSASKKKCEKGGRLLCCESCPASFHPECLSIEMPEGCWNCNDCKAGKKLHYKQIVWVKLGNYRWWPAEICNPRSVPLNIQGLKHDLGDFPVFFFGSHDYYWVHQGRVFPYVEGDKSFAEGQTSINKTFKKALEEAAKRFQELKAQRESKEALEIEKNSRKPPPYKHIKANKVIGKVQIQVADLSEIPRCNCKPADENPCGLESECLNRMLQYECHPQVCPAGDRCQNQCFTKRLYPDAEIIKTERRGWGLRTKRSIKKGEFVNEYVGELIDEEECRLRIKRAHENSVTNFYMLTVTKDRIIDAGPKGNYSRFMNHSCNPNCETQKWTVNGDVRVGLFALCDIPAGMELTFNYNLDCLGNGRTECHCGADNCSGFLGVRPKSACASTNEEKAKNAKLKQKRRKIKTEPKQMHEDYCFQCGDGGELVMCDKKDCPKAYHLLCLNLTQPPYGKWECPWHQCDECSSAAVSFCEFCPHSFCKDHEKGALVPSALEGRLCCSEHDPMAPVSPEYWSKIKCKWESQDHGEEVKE

[7] = molecular target: T3, Eukaryotic elongation factor 2 kinase (Homo sapiens) (UniProt O00418); assay: Selectivity interaction (ActivX KiNativ screen (ex vivo kinase selectivity in human PBMCs)) EUB0001619a EEF2K; type: cell-based; details: PBMC, at 1 µM
T3 sequence (whole entry): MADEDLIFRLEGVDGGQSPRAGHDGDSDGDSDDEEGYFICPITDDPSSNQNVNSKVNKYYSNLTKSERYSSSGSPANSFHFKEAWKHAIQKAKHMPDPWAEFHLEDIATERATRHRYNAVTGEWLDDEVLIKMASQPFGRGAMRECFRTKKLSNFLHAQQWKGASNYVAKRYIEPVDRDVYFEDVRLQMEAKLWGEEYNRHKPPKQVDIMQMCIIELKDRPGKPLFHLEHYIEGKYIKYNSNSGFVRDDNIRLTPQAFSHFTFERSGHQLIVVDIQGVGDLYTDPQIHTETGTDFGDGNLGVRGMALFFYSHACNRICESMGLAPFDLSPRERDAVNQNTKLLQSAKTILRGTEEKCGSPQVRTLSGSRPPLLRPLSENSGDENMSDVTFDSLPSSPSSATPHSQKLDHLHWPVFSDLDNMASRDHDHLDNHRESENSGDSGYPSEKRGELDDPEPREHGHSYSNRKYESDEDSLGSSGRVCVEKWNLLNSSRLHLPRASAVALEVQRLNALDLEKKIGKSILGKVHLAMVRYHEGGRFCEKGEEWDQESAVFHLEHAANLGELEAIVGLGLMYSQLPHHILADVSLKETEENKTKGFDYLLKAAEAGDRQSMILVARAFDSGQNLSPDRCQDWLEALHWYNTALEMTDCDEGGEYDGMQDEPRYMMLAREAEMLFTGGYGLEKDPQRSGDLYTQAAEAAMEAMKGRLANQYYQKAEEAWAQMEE

Mitogen-activated protein kinase 3, sequence (P27361 whole entry): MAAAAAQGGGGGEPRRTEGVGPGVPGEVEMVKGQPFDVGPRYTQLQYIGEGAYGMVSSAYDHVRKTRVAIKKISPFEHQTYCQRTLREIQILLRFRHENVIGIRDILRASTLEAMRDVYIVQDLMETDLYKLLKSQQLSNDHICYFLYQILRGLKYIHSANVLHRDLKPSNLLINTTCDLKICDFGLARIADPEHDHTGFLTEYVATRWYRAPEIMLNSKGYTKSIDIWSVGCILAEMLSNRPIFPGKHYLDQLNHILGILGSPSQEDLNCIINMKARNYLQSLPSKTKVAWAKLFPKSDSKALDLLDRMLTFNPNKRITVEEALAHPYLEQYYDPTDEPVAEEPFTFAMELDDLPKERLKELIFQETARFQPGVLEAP
Fibroblast growth factor receptor 3, sequence (P22607 23-806 limits assumed): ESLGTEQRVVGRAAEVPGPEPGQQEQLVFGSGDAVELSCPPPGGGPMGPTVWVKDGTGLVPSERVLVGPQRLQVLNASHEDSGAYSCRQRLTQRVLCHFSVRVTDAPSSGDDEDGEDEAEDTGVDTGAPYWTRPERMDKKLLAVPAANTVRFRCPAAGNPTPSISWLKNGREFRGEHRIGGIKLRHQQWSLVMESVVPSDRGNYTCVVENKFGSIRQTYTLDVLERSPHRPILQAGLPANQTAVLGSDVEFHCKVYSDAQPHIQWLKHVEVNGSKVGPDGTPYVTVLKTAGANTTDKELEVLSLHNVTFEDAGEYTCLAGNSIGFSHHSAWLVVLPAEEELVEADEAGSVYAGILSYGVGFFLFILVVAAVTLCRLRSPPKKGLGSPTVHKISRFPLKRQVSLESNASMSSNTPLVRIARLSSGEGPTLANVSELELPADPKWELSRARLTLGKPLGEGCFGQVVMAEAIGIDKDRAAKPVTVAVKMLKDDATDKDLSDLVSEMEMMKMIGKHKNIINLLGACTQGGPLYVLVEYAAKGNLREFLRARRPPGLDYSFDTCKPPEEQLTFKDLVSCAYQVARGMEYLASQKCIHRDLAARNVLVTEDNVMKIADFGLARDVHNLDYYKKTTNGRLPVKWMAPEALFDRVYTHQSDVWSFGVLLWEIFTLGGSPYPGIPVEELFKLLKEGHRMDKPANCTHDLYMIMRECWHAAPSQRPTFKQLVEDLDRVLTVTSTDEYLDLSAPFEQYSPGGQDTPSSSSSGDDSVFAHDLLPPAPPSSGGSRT
Protein arginine N-methyltransferase 7, sequence (Q9NVM4 whole entry): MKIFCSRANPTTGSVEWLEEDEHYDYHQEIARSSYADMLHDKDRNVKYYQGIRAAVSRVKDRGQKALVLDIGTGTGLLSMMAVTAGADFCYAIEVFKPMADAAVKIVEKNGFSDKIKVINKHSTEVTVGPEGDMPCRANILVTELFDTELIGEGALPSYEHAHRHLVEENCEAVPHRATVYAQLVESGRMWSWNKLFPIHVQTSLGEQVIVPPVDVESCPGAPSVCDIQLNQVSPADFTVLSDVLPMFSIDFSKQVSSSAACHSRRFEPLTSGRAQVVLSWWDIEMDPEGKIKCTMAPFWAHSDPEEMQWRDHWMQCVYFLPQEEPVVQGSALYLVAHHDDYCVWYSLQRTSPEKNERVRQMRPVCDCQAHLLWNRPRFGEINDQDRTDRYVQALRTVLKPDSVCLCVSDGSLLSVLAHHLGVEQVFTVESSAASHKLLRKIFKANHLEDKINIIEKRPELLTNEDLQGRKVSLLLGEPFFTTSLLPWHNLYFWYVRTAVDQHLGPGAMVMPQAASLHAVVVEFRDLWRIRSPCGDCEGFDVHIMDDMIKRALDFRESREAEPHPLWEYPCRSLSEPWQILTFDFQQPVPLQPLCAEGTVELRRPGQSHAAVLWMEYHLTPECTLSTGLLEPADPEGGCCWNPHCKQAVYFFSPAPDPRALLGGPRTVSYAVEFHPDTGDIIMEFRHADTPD
Cyclin-dependent kinase 17 (Homo sapiens), sequence (Q00537 whole entry, looked up): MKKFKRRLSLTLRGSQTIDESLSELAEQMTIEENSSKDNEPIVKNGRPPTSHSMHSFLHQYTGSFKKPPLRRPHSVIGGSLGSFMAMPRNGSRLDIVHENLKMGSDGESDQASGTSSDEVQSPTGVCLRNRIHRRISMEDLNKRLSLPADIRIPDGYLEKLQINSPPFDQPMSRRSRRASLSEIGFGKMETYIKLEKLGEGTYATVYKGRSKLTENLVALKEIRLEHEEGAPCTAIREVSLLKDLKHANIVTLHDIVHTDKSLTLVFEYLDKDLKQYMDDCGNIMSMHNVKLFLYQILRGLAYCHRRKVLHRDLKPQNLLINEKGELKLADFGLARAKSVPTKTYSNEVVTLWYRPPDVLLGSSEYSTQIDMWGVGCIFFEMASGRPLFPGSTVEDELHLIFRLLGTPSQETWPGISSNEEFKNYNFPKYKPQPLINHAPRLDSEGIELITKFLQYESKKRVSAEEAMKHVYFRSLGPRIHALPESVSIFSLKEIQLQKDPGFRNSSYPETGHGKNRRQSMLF

SMILES: CNCCN1CCC(c2cc(CN(C)C(=O)c3cccc(Oc4ccccc4)c3)ccn2)CC1
- IC50 [1]: > 10 µM

SMILES: CN(C(=O)c1cnn2cccnc12)c1cc2c(cc1N1CCOCC1)C(=O)N(C[C@@H](F)C(C)(C)O)C2
- dTM [2]: -0.3 K

SMILES: CC[C@@H]1[C@H](F)C(=O)N[C@@H]1COc1nccc2cc(C(N)=O)c(OC)cc12 [ZIMLOVISERTIB]
- % of inhibition [3]: 3.1%
- % of inhibition [4]: 6.5%

SMILES: CN(C)C/C=C/C(=O)Nc1ccc(C(=O)N2CCCC(Nc3ncc(Cl)c(-c4c[nH]c5ccccc45)n3)C2)cc1 (stereo not drawn)
- % of control [5]: 84%

SMILES: COCCN1CCC(c2cc(CN(C)C(=O)c3cccc(Oc4ccccc4)c3)ccn2)CC1
- % activity ([6]; at 1 µM): > 95%
- % activity ([6]; at 10 µM): > 90%

SMILES: N#Cc1cccc(-c2c[nH]c3ncnc(N4CCOCC4)c23)c1
- % of inhibition [7]: 3%

From ChEMBL document CHEMBL5465560, “Selectivity Literature for EUbOPEN Chemogenomic Library” (2024)
